Drawing on a melting point compilation (Tetko et al.), this text covers melting point for 107 compounds.

For orientation: melting point means the temperature, or range, at which the solid turns liquid. The compound `N#Cc1cc(/N=C/C=C/c2ccccc2)n(-c2c(Cl)cc(C(F)(F)F)cc2Cl)n1` showed a melting point of 160 °C.
On to `O=C1CCC(=O)N1c1nnc(C(F)(F)F)s1`, for which the melting point is 221 °C.
The result for `Cc1cc(CO)nn1-c1ccccn1` reads 44 to 46 °C; that for `N#CSc1ccc(N)c(C(=O)O)c1`, 165 to 168 °C.
The result for `O=C(CCCl)NCc1ccccc1` reads 94 °C; that for `N#Cc1ccnc(N)c1`, 150 °C; that for `O=Cc1ccc(N2CCOCC2)s1`, 126 to 128 °C.
The result for `CCCCC(C=O)NC(=O)C(CC(C)C)NC(=O)OCc1ccccc1` (configuration not stated) reads 60 to 75 °C; that for `O=C(O)C(CCCc1ccccc1)c1ccccc1` (configuration not stated), 78 °C; that for `CCOC(=O)c1c(C)c(C(C)=O)c(C)n1C`, 61 to 62 °C.
As for `CCOC(=O)c1cnc(C(F)(F)F)nc1Cl`, the melting point was in the range of 36 to 37 °C.
The figure for `N#CCc1ccc(OCc2ccccc2)c(OCc2ccccc2)c1` is 80 °C; for `Cc1nc(C=O)cs1` it is 56 to 58 °C.
`COc1ncnc(NS(=O)(=O)c2ccc(N)cc2)c1OC`: the melting point worked out at 192 °C.
The figure for `O=C(O)C=CC=Cc1ccc2c(c1)OCO2` is 215 °C; for `Cc1cnc(Cl)c(Br)c1` it is 66 to 68 °C.
The figure for `Clc1c(Cl)c(Cl)c2nccnc2c1Cl` is 190 °C.
The compound `O=COC1OC(=O)c2ccccc21` (configuration not stated) showed a melting point of 82 °C.
The figure for `COc1ccc(C(=O)c2ccccc2C(=O)O)cc1` is 146 °C.
The result for `C=CCOc1ccc2c(=O)cc(C(=O)OCC)oc2c1CCC` reads 84 to 86 °C.
The figure for `CCC1(c2ccccc2)NC(=O)N(C)C1=O` (configuration not stated) is 136 °C; for `O=C(O)c1cccc(Cn2cncn2)c1` it is 209 to 210 °C; for `C[Si](C)(Oc1ccccc1)Oc1ccccc1` it is -23 °C.
Turning to `O=[N+]([O-])c1ccc(-n2ncc3cccnc32)c([N+](=O)[O-])c1`, the melting point fell in the range of 181 to 187 °C.
`O=C(O)c1cscc1Sc1ccc(Cl)cc1` came in with a melting point of 195 to 198 °C.
Take `Clc1c(Cl)c(Cl)c2c(Cl)c(Cl)c(Cl)c(Cl)c2c1Cl`: the melting point came out at 198 °C.
`O=[N+]([O-])c1ccc(C2Nn3c(nnc3-c3cccnc3)S2)cc1` (configuration not stated) gave a melting point of 245 to 246 °C.
Take `Cc1cccc2c(O)c(C=C3C(=O)N(c4ccccc4)N=C3c3ccccc3)c(=O)[nH]c12`: the melting point came to 113 °C.
The result for `O=C(C1=NOC2C(=O)N(c3ccc(F)cc3)C(=O)C12)c1ccc(Cl)cc1` (configuration not stated) reads 151 °C; that for `Nc1ccccc1S(=O)(=O)c1ccccc1`, 118 to 122 °C.
The figure for `CCCCCCC(O)CCC` (configuration not stated) is -11 °C.
The figure for `COc1ccc(C2Cc3ccccc3C(O)O2)cc1` (configuration not stated) is 114 °C; for `CC(=O)Nc1ccccc1/C=C/c1cc(/C=C/c2ccccc2)c([N+](=O)[O-])cc1[N+](=O)[O-]` it is 265 °C; for `CCOC(=O)N1CCc2cc(OC)c(OC)cc2C1C#N` (configuration not stated) it is 110 to 112 °C.
In turn, `Cc1cc(I)ccc1N` yielded a melting point of 86 °C.
In turn, `Brc1nc(Br)c(Br)c(Br)c1Br` had a melting point of 206 to 208 °C.
`O=C(O)c1cccc(SC(F)(F)F)c1` yielded a melting point of 73 °C.
The result for `Cc1cc(C(C)(C)C)cc(C)c1CC1=NCCN1` reads 131 °C.
The figure for `O=C(O)c1ccnn1-c1ccccc1` is 182 to 183 °C; for `Cc1cc(N=Nc2ccccc2C)ccc1N` it is 101 to 102 °C.
The result for `CCOC(=O)c1cn2c(n1)sc1ccccc12` reads 133 to 134 °C; that for `CCN(C(=O)n1nnn(-c2ccccc2Cl)c1=O)C1CCCCC1`, 79 °C.
For the compound `N#CCc1ccc(Oc2ccc([N+](=O)[O-])cn2)cc1`, the melting point is 118 to 119 °C.
`NS(=O)(=O)c1cc2c(s1)C(O)CCS2=O` (configuration not stated) came in with a melting point of 190 °C.
The figure for `O=C1c2ccccc2C(=O)N1CCNCCN1C(=O)c2ccccc2C1=O` is 132 °C; for `Nc1ccc(Br)c([N+](=O)[O-])c1` it is 128 to 132 °C.
The figure for `O=C1C(=Cc2ccc(-c3ccc(Cl)cc3)o2)CCC1=Cc1ccc(-c2ccc(Cl)cc2)o1` is 264 to 266 °C; for `O=C(O)C(=Cc1cccc([N+](=O)[O-])c1)c1cccc([N+](=O)[O-])c1` it is 150 to 160 °C; for `CC(=NO)c1ccc(Cl)c(Cl)c1` it is 108 to 111 °C.
Regarding `O=S1(=O)c2cccc3cccc(c23)N1CCCCCl`, the melting point is 38 to 40 °C.
`CCC(C(=O)O)c1ccc(-c2ccccc2)cc1` (configuration not stated) came in with a melting point of 124 °C.
For `COC(=O)CCC(C)C1CCC2C3C(O)C(O)C4CCCCC4(C)C3CCC12C` (configuration not stated), the melting point was 120 to 121 °C.
The result for `N#Cc1c(NC(=O)c2ccccc2Cl)sc2c1CCCC2` reads 161 to 162 °C; that for `CCF`, -143 °C.
The figure for `CC1NC(C(=O)O)Cc2c1[nH]c1ccccc21` (configuration not stated) is 243 to 245 °C.
In the case of `CC(NC(CCCNC(=N)N)C(=O)O)C(=O)O` (single isomer, unassigned; (+)), the melting point lay within 283 to 284 °C.
Turning to `CON(C)C(=O)C=P(c1ccccc1)(c1ccccc1)c1ccccc1`, the melting point stood at 183 °C.
`Oc1ccnc2cc(C(F)(F)F)ccc12` yielded a melting point of 266 to 270 °C.
Turning to `COc1ccc(C(=O)c2cccc(C)c2)cc1C`, the melting point came out at 62.3 °C.
The figure for `O=CN(C=O)C(N(C=O)C=O)N(C=O)C=O` is 145 °C; for `CC(C)(C)C1=CC(=O)C(C(C)(C)C)=CC1=O` it is 153 °C; for `COc1ccc(C(=O)Cl)cc1OC1CCCC1` it is 46 to 47 °C.
For the compound `CN(C)c1ccc(/C=C(/C#N)c2nc3ccccc3c(=O)[nH]2)cc1`, the melting point was 308 to 309 °C.
`ClCC=Cc1ccccc1` came in with a melting point of -19 °C.
As for `Nc1ccccc1F`, the melting point was -29 °C.
The figure for `CCOC(=O)c1cnc2c(c(C)nn2C)c1Oc1ccc(OC)cc1` is 92 to 93.5 °C; for `Cc1cccc(Oc2ncccc2[N+](=O)[O-])c1C` it is 210 to 213 °C; for `NC(=O)OCC(COC(N)=O)c1ccccc1` it is 151 °C.
The compound `Oc1c(Cl)cc(Cl)c(Cl)c1Cl` registered a melting point of 70 °C.
The result for `Cc1c(NC=C2C(=O)NN=C2c2c(O)c3ccccc3n(C)c2=O)c(=O)n(-c2ccccc2)n1C` reads 175 °C; that for `O=Cc1cc(C=O)c(O)c(C=O)c1`, 179 to 180 °C; that for `CC(C)NCC(O)COc1cccc2ccccc12` (configuration not stated), 162 °C.
The figure for `O=C(O)Cc1ccc(F)cc1F` is 118 °C.
The result for `c1coc(CNc2ncnc3[nH]cnc23)c1` reads 269 to 271 °C; that for `Cn1cc(CCC(=O)O)c(=O)n(C)c1=O`, 225 °C.
The compound `Cc1cc([N+]([O-])=Nc2ccc(N=Nc3ccccc3)cc2)ccc1N=Nc1ccc(N=Nc2ccccc2)cc1` displayed a melting point of 193 °C.
`COC(=O)c1sccc1Cl` displayed a melting point of 39 to 40 °C.
With `O=C1CC(c2ccccc2)c2ccccc21` (configuration not stated), the melting point is 77 °C.
Compound `C/C(CCc1oc2ccccc2c1-c1ccc(C)o1)=N/O` had a melting point of 104 to 105 °C.
The result for `COC(=O)C(c1ccccc1)c1ccccc1` reads 60 °C.
Regarding `CCSc1ncccc1C(=O)Cl`, the melting point lay in the range of 53 to 55 °C.
The result for `CCc1c(C)nc(N)nc1Cl` reads 213 to 214 °C; that for `CC(=O)n1nc2oc3ccccc3cc-2c1=O`, 170 °C.
The figure for `Cc1ccc(Sc2ncccc2C(N)=O)cc1` is 205 to 207 °C; for `Cc1ccc(O)c(I)n1` it is 195 to 201 °C.
Take `CC(=O)Nc1cc(NC(C)=O)c(C=Cc2ccccc2)cc1C=Cc1ccccc1`: the melting point turned out to be 224 °C.
In the case of `CCc1ccc2c(c1)CCCC2`, the melting point was -70 °C.
The figure for `CN(N)c1c(N(C)N)c(=O)c1=O` is 201 to 202 °C.
`COc1ccc2c3c1OC1C(O)C=CC4C(C2)[N+](C)([O-])CCC341` (configuration not stated): the melting point stood at 232 °C.
In turn, `O=C(O)c1ccc2cc(C(=O)O)ccc2c1` gave a melting point of 300 °C.
For `CC=CC(C)C`, the melting point is -120 °C.
`Cn1nc(C(C)(C)C)cc1N` gave a melting point of 157 °C.
Consider `O=S(=O)(O)c1cccnc1`, for which the melting point came out at 300 °C.
Compound `Nc1nc(-c2ccc3ccccc3c2)cs1` showed a melting point of 155 °C.
`COC(=O)CCC(C)C1CCC2C3C(OC(C)=O)CC4CC(OC(C)=O)CCC4(C)C3CCC12C` (configuration not stated) showed a melting point of 185 to 186 °C.
Compound `c1ccc(C2=NNCC2)cc1` yielded a melting point of 45.8 °C.
In turn, `Cc1onc(-c2c(Cl)cccc2Cl)c1C(=O)O` came in with a melting point of 223 °C.
Take `N#C/C(=C/c1cccnc1)c1nc(-c2ccccc2)cs1`: the melting point is 164 °C.
The result for `COc1ccc(Nc2[nH]c(=S)nnc2-c2ccccc2)cc1` reads 233 °C; that for `CC(=O)c1cc(F)c(Cl)cc1Cl`, 35 °C.
As for `CCOC(=O)c1cc(C)nc(Cl)c1C#N`, the melting point was in the range of 58 to 60 °C.
The result for `FC(F)(F)c1cc(Cl)c2cc(Br)ccc2n1` reads 98 to 100 °C; that for `CC(=O)OCC1OC(OC2OC=CC3C(OC(=O)c4ccc(OC(C)=O)cc4)C4OC4(COC(C)=O)C23)C(OC(C)=O)C(OC(C)=O)C1OC(C)=O` (configuration not stated), 135 °C; that for `CCOC(=O)c1cn2nc(Cl)ccc2n1`, 156 to 157 °C.
The figure for `Nc1ccc(I)cc1` is 67.5 °C.
The result for `CC1CCCCN1` (configuration not stated) reads -5 to -4 °C; that for `CC(CC(N)=O)n1nc2ccccc2n1` (configuration not stated), 152 °C.
